The supplement of paper PMC11061612

Legend:
[1] = compound: COc1cc([C@@H]2c3cc4c(cc3[C@@H](O[C@@H]3O[C@@H]5CO[C@@H](C)O[C@H]5[C@H](O)[C@H]3O)[C@H]3COC(=O)[C@H]23)OCO4)cc(OC)c1O [Etoposide]; conditions: max 10 µM
Procedure, shortened: (§1)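 Cancer cell lines in 1536-well plates (7.5 μl DMEM/F12 or RPMI, 10% FBS) were held 24 hours at 37°C and 5% CO2 and then dosed for 72 hours at a final DMSO of typically 0.2%. Viability was taken from CellTiter-Glo 2.0 luminescence, scaled between blank-well and DMSO-well means. Curves were fitted as two-parameter logistic models with a non-linear mixed effects model, from which the single-agent IC50 was taken.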

[2] = compound: CC1=C(C(=CC=C1)Cl)NC(=O)C2=CN=C(S2)NC3=CC(=NC(=N3)C)N4CCN(CC4)CCO [Dasatinib]; conditions: max 2 µM
Procedure, shortened: as §1

[3] = compound: C[C@@H]1COCCN1C2=NC(=NC(=C2)C3(CC3)[S@](=N)(=O)C)C4=C5C=CNC5=NC=C4 [AZD6738]; conditions: max 10 µM
Procedure, shortened: as §1

[4] = compound: CS(=O)(=O)CCNCc1ccc(-c2ccc3ncnc(Nc4ccc(OCc5cccc(F)c5)c(Cl)c4)c3c2)o1 [Lapatinib]; conditions: max 10 µM
Procedure, shortened: as §1

[5] = compound: C[C@@H](Oc1cc(-c2cnn(C3CCNCC3)c2)cnc1N)c1c(Cl)ccc(F)c1Cl [Crizotinib]; conditions: max 10 µM
Procedure, shortened: as §1

[6] = compound: CC(=O)c1c(C)c2cnc(Nc3ccc(N4CCNCC4)cn3)nc2n(C2CCCC2)c1=O [Palbociclib]; conditions: max 10 µM
Procedure, shortened: as §1

[7] = compound: COc1cc2ncnc(Nc3ccc(F)c(Cl)c3)c2cc1OCCCN1CCOCC1 [Gefitinib]; conditions: max 10 µM
Procedure, shortened: as §1

[8] = compound: CC1=CN2[C@@H](C1)C=NC3=CC(=C(C=C3C2=O)OC)OCCCCCOC4=C(C=C5C(=C4)N=C[C@@H]6CC(=CN6C5=O)C)OC [SG3199]; conditions: max 0.001 µM
Procedure, shortened: as §1

[9] = compound: O=C(c1cc(Cc2n[nH]c(=O)c3ccccc23)ccc1F)N1CCN(C(=O)C2CC2)CC1 [Olaparib]; conditions: max 10 µM
Procedure, shortened: as §1

[10] = compound: CC(=O)O[C@H]1C(=O)[C@@]2(C)[C@H]([C@H](OC(=O)c3ccccc3)[C@]3(O)C[C@H](OC(=O)[C@H](O)[C@@H](NC(=O)c4ccccc4)c4ccccc4)C(C)=C1C3(C)C)[C@]1(OC(C)=O)CO[C@@H]1C[C@@H]2O [Paclitaxel]; conditions: max 3 µM
Procedure, shortened: as §1

[11] = compound: Nc1ccn([C@@H]2O[C@H](CO)[C@@H](O)C2(F)F)c(=O)n1 [Gemcitabine]; conditions: max 0.3 µM
Procedure, shortened: as §1

[12] = compound: CCc1c2c(nc3ccc(O)cc13)-c1cc3c(c(=O)n1C2)COC(=O)[C@]3(O)CC [SN-38]; conditions: max 0.3 µM
Procedure, shortened: as §1

[13] = compound: Cc1c2c(nn1C)CSCc1cc(n(C)n1)CSc1cc(c3ccccc3c1)OCCCc1c(C(=O)O)n(C)c3c-2c(Cl)ccc13 [AZD5991]; conditions: max 1 µM
Procedure, shortened: as §1

[14] = compound: COc1cccc(OCCCN)c1-c1cc(Nc2cnc(C#N)cn2)n[nH]1 [Prexasertib]; conditions: max 1 µM
Procedure, shortened: as §1

[15] = compound: CC(=O)Nc1cccc(-n2c(=O)n(C3CC3)c(=O)c3c(Nc4ccc(I)cc4F)n(C)c(=O)c(C)c32)c1 [Trametinib]; conditions: max 1 µM
Procedure, shortened: as §1

[16] = compound: COc1nnc2ccc(N3CCC(c4ccc(OCCN5CCN(C)C(=O)[C@H]5C)cc4)CC3)nn12 [AZD5153]; conditions: max 1 µM
Procedure, shortened: as §1

[17] = compound: C1CN(CCC1(C(=O)N[C@@H](CCO)C2=CC=C(C=C2)Cl)N)C3=NC=NC4=C3C=CN4 [AZD5363]; conditions: max 10 µM
Procedure, shortened: as §1

[18] = compound: Cn1cnc2c(F)c(Nc3ccc(Br)cc3Cl)c(C(=O)NOCCO)cc21 [Selumetinib]; conditions: max 10 µM
Procedure, shortened: as §1

[19] = compound: N#Cc1cnc(Nc2cc(NC[C@H]3CNCCO3)c(C(F)(F)F)cn2)cn1 [SRA737]; conditions: max 10 µM
Procedure, shortened: as §1

[20] = compound: NC1(c2ccc(-c3nc4ccn5c(=O)[nH]nc5c4cc3-c3ccccc3)cc2)CCC1 [MK-2206]; conditions: max 10 µM
Procedure, shortened: as §1

[21] = compound: Cc1cc2ncnn2cc1Nc1ncc2c(n1)n(C1CCOCC1)c(=O)n2C [AZD7648]; conditions: max 10 µM
Procedure, shortened: as §1

[22] = compound: C[C@@H](Nc1cc(F)cc(F)c1)c1cc(C(=O)N(C)C)cc2c(=O)cc(N3CCOCC3)oc12 [AZD8186]; conditions: max 10 µM
Procedure, shortened: as §1

[23] = compound: CC1(C)CCC(CN2CCN(c3ccc(C(=O)NS(=O)(=O)c4ccc(NCC5CCOCC5)c([N+](=O)[O-])c4)c(Oc4cnc5[nH]ccc5c4)c3)CC2)=C(c2ccc(Cl)cc2)C1 [Venetoclax]; conditions: max 1 µM
Procedure, shortened: as §1

[24] = compound: C=CCn1c(=O)c2cnc(Nc3ccc(N4CCN(C)CC4)cc3)nc2n1-c1cccc(C(C)(C)O)n1 [AZD1775]; conditions: max 3 µM
Procedure, shortened: as §1

[25] = compound: CN(C)CCCOc1ccc(-c2ccc3ncc4c(c3c2)n(C2CCOCC2)c(=O)n4C)cn1 [AZD0156]; conditions: max 3 µM
Procedure, shortened: as §1

[26] = compound: O=C(Nc1ccc2[nH]nc(-c3ccncc3)c2c1)[C@@H]1CCN(CC(=O)N2CCN(c3ccc(-c4ncccn4)cc3)CC2)C1; conditions: max 5 µM
Procedure, shortened: as §1

[27] = compound: C[C@@H](c1ccc2nccn2c1)n1nnc2ncc(-c3cnn(C)c3)nc21 [Savolitinib]; conditions: max 1 µM
Procedure, shortened: as §1

[28] = compound: COc1cc(Nc2ncc3c(n2)-c2ccc(Cl)cc2C(c2c(F)cccc2OC)=NC3)ccc1C(=O)O [Alisertib]; conditions: max 10 µM
Procedure, shortened: as §1

[29] = compound: Cc1nc(-c2cn3c(n2)-c2ccc(-c4cnn(C(C)(C)C(N)=O)c4)cc2OCC3)n(C(C)C)n1 [Taselisib]; conditions: max 10 µM
Procedure, shortened: as §1

[30] = compound: C1CC(C1)(C(=O)[O-])C(=O)[O-].N.N.[Pt+2] [Carboplatin]; conditions: max 10 µM
Procedure, shortened: as §1

[31] = compound: COc1cccc2c1C(=O)c1c(O)c3c(c(O)c1C2=O)C[C@@](O)(C(=O)CO)C[C@@H]3O[C@H]1C[C@H](N)[C@H](O)[C@H](C)O1 [Doxorubicin]; conditions: max 1 µM
Procedure, shortened: as §1

[32] = compound: CCN(CCO)CCCOc1ccc2c(Nc3cc(CC(=O)Nc4cccc(F)c4)[nH]n3)ncnc2c1 [AZD2811]; conditions: max 1 µM
Procedure, shortened: as §1

[33] = compound: CN(CC[C@H](CSC1=CC=CC=C1)NC2=C(C=C(C=C2)S(=O)(=O)NC(=O)C3=CC=C(C=C3)N4CCC(CC4)[C@H](C5=CC=CC=C5C6=CC=C(C=C6)Cl)O)S(=O)(=O)C(F)(F)F)CCO [AZD4320]; conditions: max 1 µM
Procedure, shortened: as §1

[34] = compound: CC(C)n1c(=O)n(C)c2cnc3cc(F)c(-c4ccc(OCCCN5CCCCC5)nc4)cc3c21 [AZD1390]; conditions: max 0.3 µM
Procedure, shortened: as §1

[35] = compound: O=c1[nH]cc(F)c(=O)[nH]1 [5-Fluorouracil]; conditions: max 20 µM
Procedure, shortened: as §1

Cell Line | IC50, cell viability 72 h [1] | IC50, cell viability 72 h [2] | IC50, cell viability 72 h [3] | IC50, cell viability 72 h [4] | IC50, cell viability 72 h [5] | IC50, cell viability 72 h [6] | IC50, cell viability 72 h [7] | IC50, cell viability 72 h [8] | IC50, cell viability 72 h [9] | IC50, cell viability 72 h [10] | IC50, cell viability 72 h [11] | IC50, cell viability 72 h [12] | IC50, cell viability 72 h [13] | IC50, cell viability 72 h [14] | IC50, cell viability 72 h [15] | IC50, cell viability 72 h [16] | IC50, cell viability 72 h [17] | IC50, cell viability 72 h [18] | IC50, cell viability 72 h [19] | IC50, cell viability 72 h [20] | IC50, cell viability 72 h [21] | IC50, cell viability 72 h [22] | IC50, cell viability 72 h [23] | IC50, cell viability 72 h [24] | IC50, cell viability 72 h [25] | IC50, cell viability 72 h [26] | IC50, cell viability 72 h [27] | IC50, cell viability 72 h [28] | IC50, cell viability 72 h [29] | IC50, cell viability 72 h [30] | IC50, cell viability 72 h [31] | IC50, cell viability 72 h [32] | IC50, cell viability 72 h [33] | IC50, cell viability 72 h [34] | IC50, cell viability 72 h [35]
K5 (Thyroid Gland Carcinoma) | > 10000 nM | 604 nM | > 10000 nM | > 10000 nM | 9780 nM | > 10000 nM | > 10000 nM | > 1 nM | > 10000 nM | 56.1 nM | > 300 nM | 150 nM | > 1000 nM | 251 nM | 14.3 nM | 243 nM | > 10000 nM | 2190 nM | > 10000 nM | > 10000 nM | > 10000 nM | > 10000 nM | > 1000 nM | > 3000 nM | > 3000 nM | 3880 nM | > 1000 nM | 638 nM | 558 nM | > 10000 nM | 266 nM | > 1000 nM | > 1000 nM | > 300 nM | > 20000 nM
HMV-II (Melanoma) | > 10000 nM | > 2000 nM | > 10000 nM | > 10000 nM | > 10000 nM | > 10000 nM | > 10000 nM | > 1 nM | > 10000 nM | 310 nM | 139 nM | 127 nM | > 1000 nM | > 1000 nM | 8.78 nM | 463 nM | > 10000 nM | 606 nM | > 10000 nM | > 10000 nM | > 10000 nM | > 10000 nM | > 1000 nM | 1160 nM | > 3000 nM | 502 nM | > 1000 nM | > 10000 nM | 5060 nM | > 10000 nM | 790 nM | > 1000 nM | > 1000 nM | > 300 nM | > 20000 nM
NB14 (Neuroblastoma) | 849 nM | > 2000 nM | 1350 nM | > 10000 nM | 1280 nM | 2360 nM | > 10000 nM | > 1 nM | > 10000 nM | < 3 nM | 128 nM | 5.04 nM | 566 nM | 4.03 nM | 570 nM | 451 nM | > 10000 nM | > 10000 nM | 677 nM | 9150 nM | > 10000 nM | > 10000 nM | 726 nM | 293 nM | > 3000 nM | > 5000 nM | > 1000 nM | 25.1 nM | > 10000 nM | > 10000 nM | 174 nM | 24.9 nM | 126 nM | > 300 nM | > 20000 nM
SH-4 (Melanoma) | > 10000 nM | > 2000 nM | > 10000 nM | > 10000 nM | > 10000 nM | > 10000 nM | > 10000 nM | > 1 nM | > 10000 nM | 2550 nM | > 300 nM | > 300 nM | > 1000 nM | 187 nM | 2.59 nM | 432 nM | > 10000 nM | 259 nM | > 10000 nM | > 10000 nM | > 10000 nM | > 10000 nM | > 1000 nM | 1490 nM | > 3000 nM | 111 nM | > 1000 nM | > 10000 nM | > 10000 nM | > 10000 nM | > 1000 nM | > 1000 nM | > 1000 nM | > 300 nM | > 20000 nM
HDLM-2 (Hodgkin's Lymphoma) | 6080 nM | > 2000 nM | > 10000 nM | > 10000 nM | > 10000 nM | > 10000 nM | > 10000 nM | > 1 nM | > 10000 nM | 27.4 nM | > 300 nM | 206 nM | 119 nM | 504 nM | > 1000 nM | 936 nM | > 10000 nM | > 10000 nM | > 10000 nM | > 10000 nM | > 10000 nM | > 10000 nM | > 1000 nM | 387 nM | > 3000 nM | > 5000 nM | > 1000 nM | > 10000 nM | > 10000 nM | > 10000 nM | > 1000 nM | > 1000 nM | 82.6 nM | > 300 nM | > 20000 nM
